{
  "source": "the kinase profiling compilation of Christmann-Franck et al. (2016)",
  "assay_in_all_cases": "KINOMEscan competition binding",
  "conditions_in_all_cases": "compound 1.0 µM",
  "key": {"STK39 (human)": {"target": "STK39 (human) (UniProt Q9UEW8)"}, "PIK3CA (human)": {"target": "PIK3CA (human) (UniProt P42336)"}, "MAP3K6 (human)": {"target": "MAP3K6 (human) (UniProt O95382)"}, "CSNK2A2 (human)": {"target": "CSNK2A2 (human) (UniProt P19784)"}, "GSK3A (human)": {"target": "GSK3A (human) (UniProt P49840)"}, "CLK3 (human)": {"target": "CLK3 (human) (UniProt P49761)"}, "PRKG2 (human)": {"target": "PRKG2 (human) (UniProt Q13237)"}, "CSNK2A1 (human)": {"target": "CSNK2A1 (human) (UniProt P68400)"}, "RPS6KA3 KD2 (human)": {"target": "RPS6KA3 KD2 (human) (UniProt P51812)", "sequence (P51812 whole entry, looked up)": "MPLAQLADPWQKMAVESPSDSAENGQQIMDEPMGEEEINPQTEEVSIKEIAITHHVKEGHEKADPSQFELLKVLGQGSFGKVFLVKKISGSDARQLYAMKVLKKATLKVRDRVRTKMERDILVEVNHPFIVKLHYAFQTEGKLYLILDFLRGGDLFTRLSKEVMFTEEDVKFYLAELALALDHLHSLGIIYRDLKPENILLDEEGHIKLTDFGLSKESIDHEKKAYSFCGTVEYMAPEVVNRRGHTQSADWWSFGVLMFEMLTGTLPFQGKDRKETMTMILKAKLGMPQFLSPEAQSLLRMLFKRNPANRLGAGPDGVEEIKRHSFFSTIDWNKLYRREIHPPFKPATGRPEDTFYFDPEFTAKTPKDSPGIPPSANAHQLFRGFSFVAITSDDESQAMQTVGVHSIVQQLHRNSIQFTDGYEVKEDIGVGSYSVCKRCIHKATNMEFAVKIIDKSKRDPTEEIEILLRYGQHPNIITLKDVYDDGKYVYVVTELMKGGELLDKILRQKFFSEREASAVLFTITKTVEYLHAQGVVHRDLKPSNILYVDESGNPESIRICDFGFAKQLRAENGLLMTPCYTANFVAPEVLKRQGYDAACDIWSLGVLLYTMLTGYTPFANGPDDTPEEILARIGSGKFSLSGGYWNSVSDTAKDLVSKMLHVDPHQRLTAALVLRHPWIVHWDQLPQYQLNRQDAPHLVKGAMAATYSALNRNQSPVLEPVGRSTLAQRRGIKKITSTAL"}, "[1]": {"target": "TYK2 JH2 pseudokinase (human) (UniProt P29597)"}, "[2]": {"test_system": "PIK3CA (human), P42336 [E545K]"}, "MAP3K5 (human)": {"target": "MAP3K5 (human) (UniProt Q99683)", "sequence (Q99683 whole entry, looked up)": "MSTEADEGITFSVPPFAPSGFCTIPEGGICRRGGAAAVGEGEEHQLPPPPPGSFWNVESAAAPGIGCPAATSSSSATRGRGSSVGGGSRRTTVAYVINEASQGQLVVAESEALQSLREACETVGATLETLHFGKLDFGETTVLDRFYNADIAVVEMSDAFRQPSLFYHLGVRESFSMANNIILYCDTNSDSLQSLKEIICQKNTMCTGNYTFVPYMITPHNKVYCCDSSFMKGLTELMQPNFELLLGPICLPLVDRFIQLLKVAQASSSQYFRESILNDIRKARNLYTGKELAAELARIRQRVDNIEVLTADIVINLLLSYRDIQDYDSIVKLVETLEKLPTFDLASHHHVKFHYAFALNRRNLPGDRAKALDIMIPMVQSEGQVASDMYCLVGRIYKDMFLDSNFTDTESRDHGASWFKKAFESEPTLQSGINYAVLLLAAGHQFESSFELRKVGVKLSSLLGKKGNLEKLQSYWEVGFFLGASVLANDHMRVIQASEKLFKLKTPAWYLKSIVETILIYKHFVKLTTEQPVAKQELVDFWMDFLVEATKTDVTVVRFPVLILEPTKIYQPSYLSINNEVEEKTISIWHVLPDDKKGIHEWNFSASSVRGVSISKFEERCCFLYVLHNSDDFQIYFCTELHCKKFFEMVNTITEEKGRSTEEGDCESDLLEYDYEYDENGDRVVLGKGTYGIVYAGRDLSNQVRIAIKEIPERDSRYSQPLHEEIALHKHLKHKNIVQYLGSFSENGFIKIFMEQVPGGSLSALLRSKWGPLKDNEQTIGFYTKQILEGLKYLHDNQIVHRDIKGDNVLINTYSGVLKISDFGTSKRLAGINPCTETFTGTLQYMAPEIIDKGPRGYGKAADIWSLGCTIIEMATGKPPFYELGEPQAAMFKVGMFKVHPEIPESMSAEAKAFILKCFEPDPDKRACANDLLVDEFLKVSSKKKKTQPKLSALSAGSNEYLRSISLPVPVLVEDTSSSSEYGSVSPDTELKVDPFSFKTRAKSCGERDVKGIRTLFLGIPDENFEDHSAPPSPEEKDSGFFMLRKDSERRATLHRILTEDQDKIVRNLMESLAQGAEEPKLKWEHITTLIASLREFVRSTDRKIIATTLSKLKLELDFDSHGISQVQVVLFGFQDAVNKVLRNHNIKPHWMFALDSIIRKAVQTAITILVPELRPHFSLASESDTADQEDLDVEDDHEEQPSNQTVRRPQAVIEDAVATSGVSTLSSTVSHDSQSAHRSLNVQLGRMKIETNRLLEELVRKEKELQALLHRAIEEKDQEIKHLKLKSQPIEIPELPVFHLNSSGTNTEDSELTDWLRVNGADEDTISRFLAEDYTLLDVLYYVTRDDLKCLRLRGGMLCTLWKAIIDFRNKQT"}, "SGK1 (human)": {"target": "SGK1 (human) (UniProt O00141)", "sequence (O00141 whole entry, looked up)": "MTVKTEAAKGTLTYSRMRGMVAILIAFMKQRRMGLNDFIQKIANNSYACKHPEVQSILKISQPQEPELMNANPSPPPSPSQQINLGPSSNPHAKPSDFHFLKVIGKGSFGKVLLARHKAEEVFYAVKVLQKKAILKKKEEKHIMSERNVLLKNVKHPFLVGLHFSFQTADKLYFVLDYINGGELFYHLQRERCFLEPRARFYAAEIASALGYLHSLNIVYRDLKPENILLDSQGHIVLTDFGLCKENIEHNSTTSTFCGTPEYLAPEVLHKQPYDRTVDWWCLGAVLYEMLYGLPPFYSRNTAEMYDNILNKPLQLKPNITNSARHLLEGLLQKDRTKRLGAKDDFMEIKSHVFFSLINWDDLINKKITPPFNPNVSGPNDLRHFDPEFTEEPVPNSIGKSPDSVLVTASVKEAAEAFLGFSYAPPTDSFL"}, "CHEK1 (human)": {"target": "CHEK1 (human) (UniProt O14757)"}, "TEC (human)": {"target": "TEC (human) (UniProt P42680)"}, "ERBB4 (human)": {"target": "ERBB4 (human) (UniProt Q15303)"}, "CDKL2 (human)": {"target": "CDKL2 (human) (UniProt Q92772)"}, "MARK3 (human)": {"target": "MARK3 (human) (UniProt P27448)"}, "PIM2 (human)": {"target": "PIM2 (human) (UniProt Q9P1W9)"}, "RET (human)": {"target": "RET (human) (UniProt P07949)"}, "MAP3K12 (human)": {"target": "MAP3K12 (human) (UniProt Q12852)"}, "SRPK2 (human)": {"target": "SRPK2 (human) (UniProt P78362)"}, "[3]": {"test_system": "FGFR3 (human), P22607 [G697C]"}, "PRKX (human)": {"target": "PRKX (human) (UniProt P51817)"}, "[4]": {"test_system": "PIK3CA (human), P42336 [I800L]"}, "PAK2 (human)": {"target": "PAK2 (human) (UniProt Q13177)", "sequence (Q13177 whole entry, looked up)": "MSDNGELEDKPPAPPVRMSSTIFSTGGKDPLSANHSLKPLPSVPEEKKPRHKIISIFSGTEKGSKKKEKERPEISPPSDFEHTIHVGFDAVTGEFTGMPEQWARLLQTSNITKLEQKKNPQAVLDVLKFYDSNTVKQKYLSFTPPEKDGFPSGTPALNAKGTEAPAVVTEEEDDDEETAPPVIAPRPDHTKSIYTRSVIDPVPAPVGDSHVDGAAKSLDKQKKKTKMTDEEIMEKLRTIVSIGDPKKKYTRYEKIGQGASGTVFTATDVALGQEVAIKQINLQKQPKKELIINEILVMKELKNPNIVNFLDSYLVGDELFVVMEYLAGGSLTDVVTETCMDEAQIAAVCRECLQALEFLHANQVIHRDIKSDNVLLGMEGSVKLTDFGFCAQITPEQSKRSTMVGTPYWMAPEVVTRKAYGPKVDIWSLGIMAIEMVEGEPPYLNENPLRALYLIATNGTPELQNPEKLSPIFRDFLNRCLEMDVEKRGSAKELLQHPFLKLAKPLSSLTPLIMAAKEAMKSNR"}, "CDK8 (human)": {"target": "CDK8 (human) (UniProt P49336)"}, "STK11 (human)": {"target": "STK11 (human) (UniProt Q15831)", "sequence (Q15831 whole entry, looked up)": "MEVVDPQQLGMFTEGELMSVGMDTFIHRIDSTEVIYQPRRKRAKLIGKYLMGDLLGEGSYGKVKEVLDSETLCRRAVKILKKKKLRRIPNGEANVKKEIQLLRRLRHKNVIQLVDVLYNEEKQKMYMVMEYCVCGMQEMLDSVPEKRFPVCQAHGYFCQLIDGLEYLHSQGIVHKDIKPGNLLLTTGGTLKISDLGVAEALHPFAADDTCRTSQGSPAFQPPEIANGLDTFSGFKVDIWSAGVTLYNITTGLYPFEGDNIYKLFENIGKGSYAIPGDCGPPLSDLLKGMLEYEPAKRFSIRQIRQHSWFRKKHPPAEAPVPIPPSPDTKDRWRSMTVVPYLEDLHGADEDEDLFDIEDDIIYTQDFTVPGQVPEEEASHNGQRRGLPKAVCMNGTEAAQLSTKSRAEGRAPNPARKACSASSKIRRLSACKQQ"}, "[5]": {"test_system": "KIT (human), P10721 [D816V]"}, "CDK7 (human)": {"target": "CDK7 (human) (UniProt P50613)"}, "WEE1 (human)": {"target": "WEE1 (human) (UniProt P30291)", "sequence (P30291 whole entry, looked up)": "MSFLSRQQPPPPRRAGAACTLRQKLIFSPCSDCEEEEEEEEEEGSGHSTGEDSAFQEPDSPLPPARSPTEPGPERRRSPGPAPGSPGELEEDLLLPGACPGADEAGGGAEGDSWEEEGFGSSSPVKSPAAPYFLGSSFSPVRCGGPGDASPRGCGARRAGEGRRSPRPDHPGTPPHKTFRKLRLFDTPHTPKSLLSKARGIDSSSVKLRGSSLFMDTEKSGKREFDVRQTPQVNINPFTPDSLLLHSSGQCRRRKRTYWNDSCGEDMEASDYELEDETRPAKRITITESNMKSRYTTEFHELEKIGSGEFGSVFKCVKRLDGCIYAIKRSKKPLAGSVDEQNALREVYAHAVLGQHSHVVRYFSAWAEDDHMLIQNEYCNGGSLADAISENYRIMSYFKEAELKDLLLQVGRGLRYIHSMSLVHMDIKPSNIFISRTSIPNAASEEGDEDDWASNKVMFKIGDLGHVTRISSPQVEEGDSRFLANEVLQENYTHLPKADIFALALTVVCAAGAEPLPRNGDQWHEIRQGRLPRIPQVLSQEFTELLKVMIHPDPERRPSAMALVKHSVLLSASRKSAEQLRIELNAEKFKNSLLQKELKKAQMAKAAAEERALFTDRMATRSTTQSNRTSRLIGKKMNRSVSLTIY"}, "PLK2 (human)": {"target": "PLK2 (human) (UniProt Q9NYY3)"}, "ANKK1 (human)": {"target": "ANKK1 (human) (UniProt Q8NFD2)"}, "NUAK2 (human)": {"target": "NUAK2 (human) (UniProt Q9H093)"}, "PDPK1 (human)": {"target": "PDPK1 (human) (UniProt O15530)"}, "MAP4K5 (human)": {"target": "MAP4K5 (human) (UniProt Q9Y4K4)", "sequence (Q9Y4K4 whole entry, looked up)": "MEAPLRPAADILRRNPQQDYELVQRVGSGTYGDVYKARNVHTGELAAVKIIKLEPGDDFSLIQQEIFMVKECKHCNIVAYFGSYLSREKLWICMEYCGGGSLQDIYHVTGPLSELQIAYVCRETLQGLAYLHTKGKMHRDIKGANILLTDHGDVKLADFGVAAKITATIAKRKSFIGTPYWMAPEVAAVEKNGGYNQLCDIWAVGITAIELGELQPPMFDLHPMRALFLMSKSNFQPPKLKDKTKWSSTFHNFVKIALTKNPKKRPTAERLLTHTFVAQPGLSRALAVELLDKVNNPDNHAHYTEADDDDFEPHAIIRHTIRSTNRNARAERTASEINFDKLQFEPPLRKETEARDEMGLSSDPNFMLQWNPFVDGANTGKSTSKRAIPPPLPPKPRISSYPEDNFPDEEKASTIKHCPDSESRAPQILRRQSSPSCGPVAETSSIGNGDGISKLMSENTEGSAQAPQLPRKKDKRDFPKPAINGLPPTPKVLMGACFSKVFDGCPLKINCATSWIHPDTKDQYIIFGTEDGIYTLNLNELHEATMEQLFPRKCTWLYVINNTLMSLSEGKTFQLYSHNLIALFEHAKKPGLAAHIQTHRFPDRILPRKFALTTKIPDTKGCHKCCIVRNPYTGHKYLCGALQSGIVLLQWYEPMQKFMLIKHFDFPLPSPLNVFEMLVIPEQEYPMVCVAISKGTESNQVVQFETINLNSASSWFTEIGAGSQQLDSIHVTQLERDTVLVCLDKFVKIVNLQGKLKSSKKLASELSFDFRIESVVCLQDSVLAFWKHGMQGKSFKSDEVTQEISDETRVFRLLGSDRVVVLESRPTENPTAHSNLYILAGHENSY"}, "NEK1 (human)": {"target": "NEK1 (human) (UniProt Q96PY6)"}, "INSR (human)": {"target": "INSR (human) (UniProt P06213)"}, "AXL (human)": {"target": "AXL (human) (UniProt P30530)"}},
  "data": [
    {"molecule": "CNc1nc(Nc2ccc(C(=O)N3CCOCC3)cc2OC)ncc1Cl", "values": [
      {"measurement": "residual activity", "setting": "STK39 (human)", "value": 100, "unit": "%"},
      {"measurement": "kinase still bound, per cent of control", "setting": "PIK3CA (human)", "value": 100, "unit": "%"},
      {"measurement": "kinase still bound, per cent of control", "setting": "MAP3K6 (human)", "value": 100, "unit": "%"},
      {"measurement": "kinase still bound, per cent of control", "setting": "CSNK2A2 (human)", "value": 74, "unit": "%"},
      {"measurement": "kinase still bound, per cent of control", "setting": "GSK3A (human)", "value": 100, "unit": "%"},
      {"measurement": "kinase still bound, per cent of control", "setting": "CLK3 (human)", "value": 100, "unit": "%"},
      {"measurement": "kinase still bound, per cent of control", "setting": "PRKG2 (human)", "value": 94, "unit": "%"},
      {"measurement": "kinase still bound, per cent of control", "setting": "CSNK2A1 (human)", "value": 76, "unit": "%"},
      {"measurement": "kinase still bound, per cent of control", "setting": "RPS6KA3 KD2 (human)", "value": 95, "unit": "%"},
      {"measurement": "kinase still bound, per cent of control", "setting": "[1]", "value": 100, "unit": "%"},
      {"measurement": "kinase still bound, per cent of control", "setting": "[2]", "value": 100, "unit": "%"},
      {"measurement": "kinase still bound, per cent of control", "setting": "MAP3K5 (human)", "value": 100, "unit": "%"},
      {"measurement": "kinase still bound, per cent of control", "setting": "SGK1 (human)", "value": 82, "unit": "%"},
      {"measurement": "kinase still bound, per cent of control", "setting": "CHEK1 (human)", "value": 100, "unit": "%"},
      {"measurement": "kinase still bound, per cent of control", "setting": "TEC (human)", "value": 100, "unit": "%"},
      {"measurement": "kinase still bound, per cent of control", "setting": "ERBB4 (human)", "value": 100, "unit": "%"},
      {"measurement": "residual activity", "setting": "CDKL2 (human)", "value": 100, "unit": "%"},
      {"measurement": "kinase still bound, per cent of control", "setting": "MARK3 (human)", "value": 98, "unit": "%"},
      {"measurement": "kinase still bound, per cent of control", "setting": "PIM2 (human)", "value": 100, "unit": "%"},
      {"measurement": "kinase still bound, per cent of control", "setting": "RET (human)", "value": 96, "unit": "%"},
      {"measurement": "residual activity", "setting": "MAP3K12 (human)", "value": 100, "unit": "%"},
      {"measurement": "kinase still bound, per cent of control", "setting": "SRPK2 (human)", "value": 84, "unit": "%"},
      {"measurement": "kinase still bound, per cent of control", "setting": "[3]", "value": 100, "unit": "%"},
      {"measurement": "kinase still bound, per cent of control", "setting": "PRKX (human)", "value": 99, "unit": "%"},
      {"measurement": "kinase still bound, per cent of control", "setting": "[4]", "value": 96, "unit": "%"},
      {"measurement": "kinase still bound, per cent of control", "setting": "PAK2 (human)", "value": 95, "unit": "%"},
      {"measurement": "residual activity", "setting": "CDK8 (human)", "value": 100, "unit": "%"},
      {"measurement": "kinase still bound, per cent of control", "setting": "STK11 (human)", "value": 90, "unit": "%"},
      {"measurement": "kinase still bound, per cent of control", "setting": "[5]", "value": 98, "unit": "%"},
      {"measurement": "residual activity", "setting": "CDK7 (human)", "value": 57, "unit": "%"},
      {"measurement": "kinase still bound, per cent of control", "setting": "WEE1 (human)", "value": 78, "unit": "%"},
      {"measurement": "kinase still bound, per cent of control", "setting": "PLK2 (human)", "value": 100, "unit": "%"},
      {"measurement": "kinase still bound, per cent of control", "setting": "ANKK1 (human)", "value": 100, "unit": "%"},
      {"measurement": "kinase still bound, per cent of control", "setting": "NUAK2 (human)", "value": 100, "unit": "%"},
      {"measurement": "kinase still bound, per cent of control", "setting": "PDPK1 (human)", "value": 95, "unit": "%"},
      {"measurement": "kinase still bound, per cent of control", "setting": "MAP4K5 (human)", "value": 73, "unit": "%"},
      {"measurement": "kinase still bound, per cent of control", "setting": "NEK1 (human)", "value": 91, "unit": "%"},
      {"measurement": "kinase still bound, per cent of control", "setting": "INSR (human)", "value": 82, "unit": "%"},
      {"measurement": "kinase still bound, per cent of control", "setting": "AXL (human)", "value": 97, "unit": "%"}
    ]}
  ]
}
